Source: PubChem BioAssay (NCI)
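Briefly, cells in 96-well plates were exposed to five compound concentrations for 48 h, and endpoints were estimated by linear interpolation. At the GI50, growth is halved. TGI marks complete inhibition of growth.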

Experiments:
Test in all cases: inhibition of tumour cell growth, NCI panel, 48 h
786-0 renal = test system: 786-0 renal
A498 renal = test system: A498 renal
A549 NSCLC = test system: A549 NSCLC
ACHN renal = test system: ACHN renal
BT-549 breast = test system: BT-549 breast
CAKI-1 renal = test system: CAKI-1 renal
CCRF-CEM leukemia = test system: CCRF-CEM leukemia
COLO 205 colon = test system: COLO 205 colon
DU-145 prostate = test system: DU-145 prostate
EKVX NSCLC = test system: EKVX NSCLC
HCC-2998 colon = test system: HCC-2998 colon
HCT-116 colon = test system: HCT-116 colon
HCT-15 colon = test system: HCT-15 colon
HL-60(TB) leukemia = test system: HL-60(TB) leukemia
HOP-62 NSCLC = test system: HOP-62 NSCLC
HOP-92 NSCLC = test system: HOP-92 NSCLC
HS 578T breast = test system: HS 578T breast
HT29 colon = test system: HT29 colon
IGROV1 ovarian = test system: IGROV1 ovarian
K-562 leukemia = test system: K-562 leukemia
KM12 colon = test system: KM12 colon
LOX IMVI melanoma = test system: LOX IMVI melanoma
M14 melanoma = test system: M14 melanoma
MALME-3M melanoma = test system: MALME-3M melanoma
MCF7 breast = test system: MCF7 breast
MDA-MB-231 breast = test system: MDA-MB-231 breast
MDA-MB-435 = test system: MDA-MB-435
MDA-MB-468 breast = test system: MDA-MB-468 breast
MOLT-4 leukemia = test system: MOLT-4 leukemia
NCI-H226 lung = test system: NCI-H226 lung
NCI-H23 lung = test system: NCI-H23 lung
NCI-H460 lung = test system: NCI-H460 lung
NCI-H522 lung = test system: NCI-H522 lung
NCI/ADR-RES ovarian = test system: NCI/ADR-RES ovarian
OVCAR-3 ovarian = test system: OVCAR-3 ovarian
OVCAR-4 ovarian = test system: OVCAR-4 ovarian
OVCAR-5 ovarian = test system: OVCAR-5 ovarian
OVCAR-8 ovarian = test system: OVCAR-8 ovarian
PC-3 prostate = test system: PC-3 prostate
RPMI-8226 leukemia = test system: RPMI-8226 leukemia
RXF 393 renal = test system: RXF 393 renal
SF-268 CNS = test system: SF-268 CNS
SF-295 CNS = test system: SF-295 CNS
SF-539 CNS = test system: SF-539 CNS
SK-MEL-2 melanoma = test system: SK-MEL-2 melanoma
SK-MEL-28 melanoma = test system: SK-MEL-28 melanoma
SK-MEL-5 melanoma = test system: SK-MEL-5 melanoma
SK-OV-3 ovarian = test system: SK-OV-3 ovarian
SN12C renal = test system: SN12C renal
SNB-19 CNS = test system: SNB-19 CNS
SNB-75 CNS = test system: SNB-75 CNS
SR leukemia = test system: SR leukemia
SW-620 colon = test system: SW-620 colon
T-47D breast = test system: T-47D breast
TK-10 renal = test system: TK-10 renal
U251 CNS = test system: U251 CNS
UACC-257 melanoma = test system: UACC-257 melanoma
UACC-62 melanoma = test system: UACC-62 melanoma
UO-31 renal = test system: UO-31 renal

Cc1cc2c(cc1Cl)C(=O)/C(=C/c1ccccc1)O2 gave a GI50 (786-0 renal) of 20 µM, a TGI (786-0 renal) of 40.5 µM and a GI50 (A498 renal) of 49.3 µM. The TGI (A498 renal) was > 100 µM, the GI50 (A549 NSCLC) was 16.6 µM and the TGI (A549 NSCLC) was 37.8 µM. The GI50 (ACHN renal) was 15.1 µM, the TGI (ACHN renal) was 29 µM and the GI50 (BT-549 breast) was 16.7 µM. For the same compound, the TGI (BT-549 breast) was 45.3 µM, the GI50 (CAKI-1 renal) was 15.5 µM and the TGI (CAKI-1 renal) was 31.1 µM. It also gave a GI50 (CCRF-CEM leukemia) of 18.7 µM, a TGI (CCRF-CEM leukemia) of 49.2 µM and a GI50 (COLO 205 colon) of 24.6 µM. The TGI (COLO 205 colon) was 51.9 µM, the GI50 (DU-145 prostate) was 16.9 µM and the TGI (DU-145 prostate) was 33.7 µM. The GI50 (EKVX NSCLC) was 16.5 µM, the TGI (EKVX NSCLC) was 33.1 µM and the GI50 (HCC-2998 colon) was 31.6 µM. The TGI (HCC-2998 colon) was > 100 µM, the GI50 (HCT-116 colon) was 15.4 µM and the TGI (HCT-116 colon) was 62.9 µM. For the same compound, the GI50 (HCT-15 colon) was 14.2 µM, the TGI (HCT-15 colon) was 85.4 µM and the GI50 (HL-60(TB) leukemia) was 22.3 µM. It also gave a TGI (HL-60(TB) leukemia) of 46.7 µM, a GI50 (HOP-62 NSCLC) of 22.8 µM and a TGI (HOP-62 NSCLC) of 52.8 µM. For the same compound, the GI50 (HOP-92 NSCLC) was 17.7 µM, the TGI (HOP-92 NSCLC) was 44.6 µM and the GI50 (HS 578T breast) was 29.2 µM. For the same compound, the TGI (HS 578T breast) was > 100 µM, the GI50 (HT29 colon) was 29 µM and the TGI (HT29 colon) was > 100 µM. For the same compound, the GI50 (IGROV1 ovarian) was 14 µM, the TGI (IGROV1 ovarian) was 30.9 µM and the GI50 (K-562 leukemia) was 27.6 µM. For the same compound, the TGI (K-562 leukemia) was > 100 µM, the GI50 (KM12 colon) was 31.3 µM and the TGI (KM12 colon) was > 100 µM. It also gave a GI50 (LOX IMVI melanoma) of 1.9 µM, a TGI (LOX IMVI melanoma) of 4.19 µM and a GI50 (M14 melanoma) of 26 µM. For the same compound, the TGI (M14 melanoma) was > 100 µM, the GI50 (MALME-3M melanoma) was 17.4 µM and the TGI (MALME-3M melanoma) was 31.7 µM. It also gave a GI50 (MCF7 breast) of 2.7 µM, a TGI (MCF7 breast) of 57.4 µM and a GI50 (MDA-MB-231 breast) of 16.5 µM. For the same compound, the TGI (MDA-MB-231 breast) was 39.4 µM, the GI50 (MDA-MB-435) was 21.5 µM and the TGI (MDA-MB-435) was 59.6 µM. The GI50 (MDA-MB-468 breast) was 13.2 µM, the TGI (MDA-MB-468 breast) was 40.5 µM and the GI50 (MOLT-4 leukemia) was 17.9 µM. The TGI (MOLT-4 leukemia) was 46 µM, the GI50 (NCI-H226 lung) was 12.8 µM and the TGI (NCI-H226 lung) was 31.5 µM. It also gave a GI50 (NCI-H23 lung) of 15.4 µM, a TGI (NCI-H23 lung) of 44.8 µM and a GI50 (NCI-H460 lung) of 16 µM. For the same compound, the TGI (NCI-H460 lung) was 35.6 µM, the GI50 (NCI-H522 lung) was 13 µM and the TGI (NCI-H522 lung) was 30.7 µM. For the same compound, the GI50 (NCI/ADR-RES ovarian) was 15.7 µM, the TGI (NCI/ADR-RES ovarian) was 38.6 µM and the GI50 (OVCAR-3 ovarian) was 25.5 µM. For the same compound, the TGI (OVCAR-3 ovarian) was 93.1 µM, the GI50 (OVCAR-4 ovarian) was 16.8 µM and the TGI (OVCAR-4 ovarian) was 61.3 µM. The GI50 (OVCAR-5 ovarian) was 23.2 µM, the TGI (OVCAR-5 ovarian) was > 100 µM and the GI50 (OVCAR-8 ovarian) was 16.5 µM. For the same compound, the TGI (OVCAR-8 ovarian) was 44.1 µM, the GI50 (PC-3 prostate) was 11.1 µM and the TGI (PC-3 prostate) was 70.6 µM. For the same compound, the GI50 (RPMI-8226 leukemia) was 22.4 µM, the TGI (RPMI-8226 leukemia) was > 100 µM and the GI50 (RXF 393 renal) was 15 µM. For the same compound, the TGI (RXF 393 renal) was 33.6 µM, the GI50 (SF-268 CNS) was 25.1 µM and the TGI (SF-268 CNS) was 89.2 µM. The GI50 (SF-295 CNS) was 26 µM, the TGI (SF-295 CNS) was > 100 µM and the GI50 (SF-539 CNS) was 15.7 µM. For the same compound, the TGI (SF-539 CNS) was 29.1 µM, the GI50 (SK-MEL-2 melanoma) was 20.6 µM and the TGI (SK-MEL-2 melanoma) was 72 µM. The GI50 (SK-MEL-28 melanoma) was 23.7 µM, the TGI (SK-MEL-28 melanoma) was 76.3 µM and the GI50 (SK-MEL-5 melanoma) was 15.6 µM. For the same compound, the TGI (SK-MEL-5 melanoma) was 30.9 µM, the GI50 (SK-OV-3 ovarian) was 62.3 µM and the TGI (SK-OV-3 ovarian) was > 100 µM. It also gave a GI50 (SN12C renal) of 13.9 µM, a TGI (SN12C renal) of 33.1 µM and a GI50 (SNB-19 CNS) of 26.5 µM. For the same compound, the TGI (SNB-19 CNS) was > 100 µM, the GI50 (SNB-75 CNS) was 9.27 µM and the TGI (SNB-75 CNS) was 57.7 µM. The GI50 (SR leukemia) was 20.9 µM, the TGI (SR leukemia) was 54.8 µM and the GI50 (SW-620 colon) was 16.8 µM. It also gave a TGI (SW-620 colon) of 48.3 µM, a GI50 (T-47D breast) of 13.6 µM and a TGI (T-47D breast) of 35.3 µM. For the same compound, the GI50 (TK-10 renal) was 23.5 µM, the TGI (TK-10 renal) was 40.6 µM and the GI50 (U251 CNS) was 13.1 µM. For the same compound, the TGI (U251 CNS) was 28.7 µM, the GI50 (UACC-257 melanoma) was 23.4 µM and the TGI (UACC-257 melanoma) was > 100 µM. The GI50 (UACC-62 melanoma) was 15.9 µM, the TGI (UACC-62 melanoma) was 49.9 µM and the GI50 (UO-31 renal) was 13.9 µM. The TGI (UO-31 renal) was 26.8 µM.
